Experimental data taken from US20250296959A1, “B7-H3 TARGETING PEPTIDES AND CONSTRUCTS THEREOF” (Mariana Oncology Inc., priority 2024, published 2025).
Like-named read-outs stand apart in the source and are kept apart here. Starred links: 1 amine or outer side, 2 acyl side, 3 side chain; linkers in the order of their positions; H or OH if unused. Positions of bridges follow the written chain, without caps; N, C: chain ends. Non-standard residues stand in square brackets, D forms with d. Residues, ends and D or L forms follow the SMILES beside them. *: point of attachment. Ala(1-CH2CO2H-4-piperidyl) = N[C@@H](CC1CCN(CC(=O)O)CC1)C(=O)O; Ala(piperidin-4-yl) = O=C([C@H](CC1CCN([*:3])CC1)N[*:1])[*:2]; DOTA = O=C(O)CN1CCN(CC(=O)O)CCN(CC(=O)*)CCN(CC(=O)O)CC1; Phe(4-NHCONH2) = NC(=O)Nc1ccc(C[C@H](N)C(=O)O)cc1; Trp(5-F) = N[C@@H](Cc1c[nH]c2ccc(F)cc12)C(=O)O; X1 = C[C@@H](c1ccccc1)[C@H](N[*:1])C(=O)[*:2]; Ala(4-THP) = N[C@@H](CC1CCOCC1)C(=O)O; Val(3-OH) = CC(C)(O)[C@H](N)C(=O)O; 4Pal = N[C@@H](Cc1ccncc1)C(=O)O; Cha = N[C@@H](CC1CCCCC1)C(=O)O; Tle = CC(C)(C)[C@H](N)C(=O)O; hLeu = CC(C)CC[C@H](N)C(=O)O; NMeS = CN[C@@H](CO)C(=O)O

How the values were obtained:
Calu-6 cell line [1] = assay: Cell associated (bound) fraction of [177Lu]Lu-labeled peptide in Calu-6 cells; assay type: cell-based, Human; conditions: 1 hour, 37° C.
Description: (§1) [^177Lu]LuCl3 was received from venders in HCl solution. For every mCi of [^177Lu]LuCl3 added to the reaction vial (1.5 mL Eppendorf vial), ammonium acetate buffer (0.2 M, pH 4.9, 100 μL, containing 1% w/v ascorbic acid and 6% v/v ethanol) and peptide conjugate (1 nmol) was added. The pH of the solution was determined to be approximately 5 by using pH strips. The reaction vial was incubated at 80° C., 700 RPM for 17-20 minutes. A sample from the reaction was analyzed by RP-HPLC using an Agilent Infinity II 1260 HPLC to determine reaction completion and radiochemical purity. HPLC conditions: Waters XBridge BEH C18 Column, 130 Å, 3.5 μm, 4.6 mm×250 mm; mobile phase: Solvent A=water (with 0.1% formic acid), solvent B=acetonitrile (with 0.1% formic acid). Gradients: 25-45% B in 10 minutes, 45-65% B in 12 minutes, 65-90% in 6 minutes at a flow rate of 0.5 mL/minute. Required amounts of the product were formulated in 1% PBSA for cell studies.
(§2) The study was conducted using Calu-6 cell line (Table 8)
(§3) Adherent cell studies: The cells were cultured in appropriate culture media (20 mL) in tissue culture treated T150 flasks at 37° C. and 5% CO2. Adherent cells were detached (60-70% confluent) using 5 mL Versene at 37° C. for 3 minutes. After confirming the viability using countess and count of detached cells using Trypan blue, the cells were centrifuged at 4° C. for 5 minutes (1,000 revolutions per minute). The cell pellet obtained was washed once with PBS and resuspended in 1% PBSA to obtain the desired cell concentration (5 million cells/mL).
Cell associated fraction: Cells were incubated with 300 μL (0.8 μCi) of the incubation buffer (containing radiolabeled peptide [^177Lu]Lu-test peptide) for 1 hour at 37 C (Table 9). Post incubation, the cells were pelleted and washed 2 times using cold PBS+1% BSA. The supernatant and washes were combined and counted together as “unbound fraction” in a gamma counter. The cells were then resuspended in 300 μL of 1% PBS+1% BSA and counted in the gamma counter as cell associated fraction (or bound fraction).
(§4) Calu-6 Cells are Human-Derived, Non-Engineered Lung Cancer Cell that Express B7-H3.

Calu-6 cell line [2] = assay: Net internalization of [177Lu]Lu-labeled peptide in Calu-6 cells; assay type: cell-based, Human; conditions: 1 hour, 37° C., glycine pH 2.5 acid wash
Description: as §1, §2, §3
Net internalization: The resuspended cells in 300 μl of 1% PBSA and counted in the gamma counter as “bound fraction” were collected in 1.5 mL Eppendorf tube and pelleted. The pelleted cells were incubated with 300 μl of 50 mM Glycine pH=2.5 for 3 minutes and then pelleted discarding the supernatant. This process was repeated one more time. The pelleted cells were washed with 300 μl of cold 1% PBSA and then resuspended in 300 μl 0.3 M NaOH. This was counted in the gamma counter as “internalized fraction”.
as §4

human 4lg B7-H3 = biological target: T1, human 4lg B7-H3 (Homo sapiens, UniProt Q5ZPR3); assay: Affinity determination by surface plasmon resonance (SPR) to 4Ig B7-H3; conditions: 4Ig B7-H3
T1 sequence (Q5ZPR3 29-534): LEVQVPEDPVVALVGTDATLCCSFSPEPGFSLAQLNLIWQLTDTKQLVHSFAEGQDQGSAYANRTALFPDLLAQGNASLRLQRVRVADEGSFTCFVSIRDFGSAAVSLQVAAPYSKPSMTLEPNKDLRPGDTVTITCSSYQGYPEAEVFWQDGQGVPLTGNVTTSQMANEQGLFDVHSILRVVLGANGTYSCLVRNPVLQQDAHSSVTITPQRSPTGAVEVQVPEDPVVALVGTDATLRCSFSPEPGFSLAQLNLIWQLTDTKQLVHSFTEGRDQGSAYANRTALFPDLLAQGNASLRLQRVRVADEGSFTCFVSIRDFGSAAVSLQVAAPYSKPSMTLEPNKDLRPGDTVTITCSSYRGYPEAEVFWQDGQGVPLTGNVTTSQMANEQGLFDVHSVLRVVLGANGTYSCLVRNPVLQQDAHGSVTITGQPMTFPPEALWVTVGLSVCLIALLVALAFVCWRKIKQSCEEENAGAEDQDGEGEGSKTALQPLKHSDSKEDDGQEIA

[3] = SPR KD—25° C., 25° C. flow cell temperature

Molecule | % cell associated fraction (Calu-6 cell line [1]) | % net internalization (Calu-6 cell line [2]) | Kd (human 4lg B7-H3; read-out: SPR KD—37° C., 37° C. flow cell temperature) | Kd (human 4lg B7-H3; [3])
CC(=O)N[C@@H](CCC(C)C)C(=O)N[C@@H](Cc1ccc(O)cc1)C(=O)N[C@H]1CSSC[C@@H](C(=O)N[C@@H](Cc2c[nH]c3ccc(F)cc23)C(=O)N[C@H](C(=O)N[C@H](C(=O)N[C@H](CCCCNC(=O)CN2CCN(CC(=O)O)CCN(CC(=O)O)CCN(CC(=O)O)CC2)C(=O)O)C(C)(C)O)[C@@H](C)c2ccccc2)NC(=O)[C@H](Cc2ccc(NC(N)=O)cc2)NC(=O)[C@H](C(C)C)NC(=O)[C@H](CC(=O)O)NC(=O)[C@H](CC2CCOCC2)NC(=O)[C@H](CC2CCN(CC(=O)O)CC2)NC(=O)CNC(=O)[C@H](C(C)(C)C)NC1=O [compound 499, Ac-hLeu-Y-C-Tbg-G-Pip(CH2COOH)Ala-ThpA-D-V-Aph(Cbm)-C-5FW-[(2S, 3S)beta-Me-Phe]-hydroxyVal-dLys(DOTA)-COOH] (Ac-[hLeu]YC[Tle]G[Ala(1-CH2CO2H-4-piperidyl)][Ala(4-THP)]DV[Phe(4-NHCONH2)]C[Trp(5-F)][X1][Val(3-OH)][dK](DOTA)-OH; disulfide 3-11) | C (%>50) | A (%≤25) | < 1 nM | –
Ac-hLeu-Y-C-Tbg-G-Pip(PEG4-DOTA)Ala-ThpA-D-V-Y-C-5FW-[(2S, 3S)beta-Me-Phe]-hydroxyVal-dAla-COOH [compound 494] | C (%>50) | B (25<%≤50) | – | –
CC(=O)N[C@@H](CCC(C)C)C(=O)N[C@@H](Cc1ccc(O)cc1)C(=O)N[C@H]1CSSC[C@@H](C(=O)N[C@@H](Cc2c[nH]c3ccc(F)cc23)C(=O)N[C@@H](Cc2ccccc2)C(=O)N[C@H](C(N)=O)C(C)(C)O)NC(=O)[C@H](Cc2ccc(O)cc2)NC(=O)[C@H](C(C)C)NC(=O)[C@H](CC(=O)O)NC(=O)[C@H](CC2CCCCC2)NC(=O)[C@H](CCCCNC(=O)CN2CCN(CC(=O)O)CCN(CC(=O)O)CCN(CC(=O)O)CC2)NC(=O)CNC(=O)[C@H](C(C)C)NC1=O [compound 201, Ac-hLeu-Y-C-V-G-Lys(DOTA)-CHA-D-V-Y-C-5FW-F-hydroxyVal-CONH2] (Ac-[hLeu]YCVGK(DOTA)[Cha]DVYC[Trp(5-F)]F[Val(3-OH)]-NH2; disulfide 3-11) | – | – | – | 1 to 10 nM
CC(=O)N[C@@H](CCC(C)C)C(=O)N[C@@H](Cc1ccc(O)cc1)C(=O)N[C@H]1CSSC[C@@H](C(=O)N[C@@H](Cc2c[nH]c3ccc(F)cc23)C(=O)N[C@@H](Cc2ccccc2)C(=O)N(C)[C@@H](CO)C(N)=O)NC(=O)[C@H](Cc2ccc(O)cc2)NC(=O)[C@H](C(C)C)NC(=O)[C@H](CC(=O)O)NC(=O)[C@H](Cc2ccncc2)NC(=O)[C@H](CCCCNC(=O)CN2CCN(CC(=O)O)CCN(CC(=O)O)CCN(CC(=O)O)CC2)NC(=O)CNC(=O)[C@H](C(C)C)NC1=O [compound 228, Ac-hLeu-Y-C-V-G-Lys(DOTA)-4PyA-D-V-Y-C-5FW-F-NMeSer-CONH2] (Ac-[hLeu]YCVGK(DOTA)[4Pal]DVYC[Trp(5-F)]F[NMeS]-NH2; disulfide 3-11) | – | – | – | 1 to 10 nM
CC(=O)N[C@@H](CCC(C)C)C(=O)N[C@H](C(=O)N[C@H]1CSSC[C@@H](C(=O)N[C@@H](Cc2c[nH]c3ccc(F)cc23)C(=O)N[C@@H](Cc2ccccc2)C(=O)N(C)[C@@H](CO)C(=O)N[C@H](CCCCNC(=O)CN2CCN(CC(=O)O)CCN(CC(=O)O)CCN(CC(=O)O)CC2)C(N)=O)NC(=O)[C@H](Cc2ccc(O)cc2)NC(=O)[C@H](C(C)C)NC(=O)[C@H](CC(=O)O)NC(=O)[C@H](Cc2ccc(O)cc2)NC(=O)[C@H](CC2CCNCC2)NC(=O)CNC(=O)[C@H](C(C)C)NC1=O)C(C)(C)O [compound 211, Ac-hLeu-hyVal-C-V-G-PipAla-Y-D-V-Y-C-5FW-F-NMeSer-dLys(DOTA)-CONH2] (Ac-[hLeu][Val(3-OH)]CVG[Ala(piperidin-4-yl)]YDVYC[Trp(5-F)]F[NMeS][dK](DOTA)-NH2; disulfide 3-11) | – | – | – | 10 to 100 nM
